Values joined by “and” are separate entries in the source; they are usually repeats but may differ in a detail not shown here. Equal entries are not always repeated. Numbers after ± are expanded uncertainties.
Details: Liquid, Transpiration method

SMILES: CN(C)CCN [2-dimethylamino-1-ethylamine]
- vapor or sublimation pressure (273.8 K): 0.7397 ± 0.046 kPa
- vapor or sublimation pressure (274.2 K): 0.7526 ± 0.047 kPa
- vapor or sublimation pressure (275.2 K): 0.808 ± 0.051 kPa
- vapor or sublimation pressure (276.7 K): 0.8869 ± 0.055 kPa
- vapor or sublimation pressure (278.2 K): 0.9687 ± 0.06 kPa
- vapor or sublimation pressure (280.7 K): 1.114 ± 0.07 kPa
- vapor or sublimation pressure (283.2 K): 1.309 ± 0.082 kPa
- vapor or sublimation pressure (285.6 K): 1.561 ± 0.098 kPa
- vapor or sublimation pressure (288.2 K): 1.821 ± 0.11 kPa
- vapor or sublimation pressure (290.7 K): 2.088 ± 0.13 kPa
- vapor or sublimation pressure (293.2 K): 2.392 ± 0.15 kPa
- vapor or sublimation pressure (295.6 K): 2.763 ± 0.17 kPa
- vapor or sublimation pressure (298.2 K): 3.186 ± 0.2 kPa and 3.282 ± 0.2 kPa
- vapor or sublimation pressure (300.7 K): 3.755 ± 0.23 kPa and 3.727 ± 0.23 kPa
- vapor or sublimation pressure (303.2 K): 4.331 ± 0.27 kPa and 4.291 ± 0.27 kPa

SMILES: CNCCNC [N1,N2-dimethylethane-1,2-diamine]
- vapor or sublimation pressure (279.2 K): 0.4258 ± 0.027 kPa
- vapor or sublimation pressure (281.4 K): 0.5045 ± 0.032 kPa
- vapor or sublimation pressure (283.3 K): 0.5851 ± 0.037 kPa
- vapor or sublimation pressure (285.6 K): 0.6936 ± 0.044 kPa
- vapor or sublimation pressure (288.2 K): 0.8579 ± 0.054 kPa
- vapor or sublimation pressure (290.6 K): 1.023 ± 0.064 kPa
- vapor or sublimation pressure (293.2 K): 1.228 ± 0.077 kPa
- vapor or sublimation pressure (295.8 K): 1.498 ± 0.094 kPa
- vapor or sublimation pressure (298.2 K): 1.781 ± 0.11 kPa
- vapor or sublimation pressure (300.7 K): 2.106 ± 0.13 kPa
- vapor or sublimation pressure (303.4 K): 2.477 ± 0.16 kPa
- vapor or sublimation pressure (305.6 K): 2.892 ± 0.18 kPa
- vapor or sublimation pressure (308.2 K): 3.408 ± 0.21 kPa
- vapor or sublimation pressure (310.7 K): 3.974 ± 0.25 kPa

SMILES: CNCCN(C)C [N,N,N'-trimethylethylenediamine]
- vapor or sublimation pressure (274.2 K): 0.5021 ± 0.032 kPa
- vapor or sublimation pressure (276.7 K): 0.605 ± 0.039 kPa
- vapor or sublimation pressure (281.8 K): 0.8858 ± 0.056 kPa
- vapor or sublimation pressure (286.8 K): 1.271 ± 0.08 kPa
- vapor or sublimation pressure (291 K): 1.686 ± 0.11 kPa
- vapor or sublimation pressure (296.3 K): 2.403 ± 0.15 kPa
- vapor or sublimation pressure (298.2 K): 2.733 ± 0.17 kPa
- vapor or sublimation pressure (301 K): 3.259 ± 0.2 kPa
- vapor or sublimation pressure (303.2 K): 3.811 ± 0.24 kPa
- vapor or sublimation pressure (304.1 K): 4.074 ± 0.26 kPa
- vapor or sublimation pressure (305.4 K): 4.402 ± 0.27 kPa

SMILES: CNCCN [N-methylethylenediamine]
- vapor or sublimation pressure (272.2 K): 0.2731 ± 0.017 kPa
- vapor or sublimation pressure (274.3 K): 0.3181 ± 0.02 kPa
- vapor or sublimation pressure (275.4 K): 0.3449 ± 0.022 kPa
- vapor or sublimation pressure (278 K): 0.4148 ± 0.027 kPa
- vapor or sublimation pressure (278.6 K): 0.4455 ± 0.028 kPa
- vapor or sublimation pressure (279.4 K): 0.4695 ± 0.029 kPa
- vapor or sublimation pressure (280.2 K): 0.4943 ± 0.031 kPa
- vapor or sublimation pressure (281.3 K): 0.5355 ± 0.034 kPa
- vapor or sublimation pressure (282.3 K): 0.5867 ± 0.037 kPa
- vapor or sublimation pressure (283.1 K): 0.6075 ± 0.038 kPa
- vapor or sublimation pressure (284.1 K): 0.6579 ± 0.042 kPa
- vapor or sublimation pressure (284.9 K): 0.6972 ± 0.044 kPa
- vapor or sublimation pressure (286.3 K): 0.7738 ± 0.049 kPa
- vapor or sublimation pressure (287.8 K): 0.8601 ± 0.054 kPa
- vapor or sublimation pressure (289.3 K): 0.9404 ± 0.059 kPa
- vapor or sublimation pressure (290.6 K): 1.034 ± 0.066 kPa
- vapor or sublimation pressure (292.2 K): 1.176 ± 0.074 kPa
- vapor or sublimation pressure (294.6 K): 1.394 ± 0.087 kPa
- vapor or sublimation pressure (296.2 K): 1.541 ± 0.097 kPa
- vapor or sublimation pressure (298.1 K): 1.762 ± 0.11 kPa
- vapor or sublimation pressure (300.2 K): 2.017 ± 0.13 kPa
- vapor or sublimation pressure (302.2 K): 2.275 ± 0.14 kPa
